For eleven molecules, TGI and GI50 results are on record in PubChem BioAssay (NCI).

Some test systems named below: KM12 colon; SNB-19 CNS; HL-60(TB) leukemia; NCI-H522 lung; SK-OV-3 ovarian; SK-MEL-28 melanoma; HCT-15 colon; IGROV1 ovarian; SF-539 CNS; SNB-75 CNS; ACHN renal; MDA-N.
Test in all cases: NCI tumour cell line growth inhibition, 48 h

Molecules are shown by their SMILES. Where “and” joins values, the source holds several entries; their conditions need not be identical. Equal values may be shown once.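 Briefly, cells in 96-well plates were exposed to five compound concentrations for 48 h, and endpoints were estimated by linear interpolation. GI50 marks 50% less growth. TGI marks complete inhibition of growth.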 Some results are limits rather than exact numbers.

Take `NC1C/C(=N\O)c2c(I)sc(I)c21` (stereo not given): the TGI is 27.7 µM in the assay on KM12 colon; 39.3 µM in the assay on SNB-19 CNS; > 100 µM with HL-60(TB) leukemia; 3.7 µM with NCI-H522 lung; 30.2 µM in the assay with SK-OV-3 ovarian; 32.5 µM in the assay on SK-MEL-28 melanoma. The TGI in the assay with HCT-15 colon is 30.6 µM; in the assay on IGROV1 ovarian, 30.8 µM; in the assay on SF-539 CNS it was 20.3 µM; in the assay with SNB-75 CNS it was 33.4 µM; with ACHN renal it was 33.5 µM; with MDA-N it was > 54 µM.
Turning to `NC1CC(=O)c2csc(Br)c21` (stereo not given), the TGI with KM12 colon was > 57.9 µM; in the assay with SNB-19 CNS, > 80.3 µM; with HL-60(TB) leukemia it was 61.3 µM; in the assay on NCI-H522 lung, 8.21 µM; in the assay with SK-OV-3 ovarian, > 100 µM; with SK-MEL-28 melanoma, 37.9 µM. The TGI with HCT-15 colon is 41.2 µM; with IGROV1 ovarian it was 25.4 µM; in the assay on SF-539 CNS, 8.24 µM; in the assay on SNB-75 CNS, > 79.5 µM; with ACHN renal, 32.2 µM; with MDA-N, 28.4 µM.
Regarding `O=C(Cn1nc(Br)c(Br)c1Br)c1ccccc1`, the TGI in the assay on KM12 colon was > 100 µM; in the assay on SNB-19 CNS it was > 100 µM; in the assay on HL-60(TB) leukemia it was 30.5 µM; in the assay on NCI-H522 lung it was 83.6 µM; in the assay on SK-OV-3 ovarian, 95.2 µM; with SK-MEL-28 melanoma it was > 100 µM. Also, the TGI in the assay on HCT-15 colon was > 100 µM; in the assay on IGROV1 ovarian it was > 100 µM; with SF-539 CNS, 45.1 µM; with SNB-75 CNS, 63.8 µM; in the assay on ACHN renal, 76.2 µM; in the assay with MDA-N, > 100 µM.
Turning to `Cc1nc2c(o1)C(=O)c1ccccc1/C2=N/c1ccccn1`, the TGI with KM12 colon was 42.2 µM; with SNB-19 CNS, 28.3 µM; in the assay with HL-60(TB) leukemia it was 44.2 µM; in the assay on NCI-H522 lung it was 35.9 µM; in the assay on SK-OV-3 ovarian, > 100 µM; in the assay on SK-MEL-28 melanoma, 32.8 µM. Moreover, the TGI in the assay on HCT-15 colon came to 28.4 µM; in the assay on IGROV1 ovarian, 51.4 µM; in the assay with SF-539 CNS, 33.2 µM; in the assay on SNB-75 CNS, 20.9 µM; with ACHN renal, 39.8 µM; with MDA-N, 32.6 µM.
For the molecule `O=C(Oc1ccccc1)c1cc2cc(CCl)ccc2oc1=O`, the TGI in the assay on KM12 colon was > 100 µM; in the assay with SNB-19 CNS, > 100 µM; in the assay on HL-60(TB) leukemia, > 100 µM; in the assay on NCI-H522 lung, 24.6 µM; with SK-OV-3 ovarian, 83.2 µM; in the assay with SK-MEL-28 melanoma it was > 100 µM. In addition, the TGI with HCT-15 colon was > 100 µM; with IGROV1 ovarian it was > 100 µM; in the assay with SF-539 CNS it was > 100 µM; in the assay with SNB-75 CNS, 57.3 µM; in the assay with ACHN renal, 21.1 µM; in the assay with MDA-N, > 100 µM.
With `CC(C)OP(=O)(CN(C)/C(F)=N\C(F)(F)F)OC(C)C`, the TGI in the assay with KM12 colon, in the assay with SNB-19 CNS, with HL-60(TB) leukemia, in the assay on NCI-H522 lung, in the assay with SK-OV-3 ovarian and in the assay on SK-MEL-28 melanoma was > 100 µM each time. The TGI with HCT-15 colon, with IGROV1 ovarian, in the assay on SF-539 CNS, with SNB-75 CNS, in the assay on ACHN renal and in the assay with MDA-N was > 100 µM each time.
In the case of `NNC(=O)CNC(=O)CSc1nnc(COc2ccc(Cl)cc2)n1-c1ccccc1`, the TGI in the assay on KM12 colon, in the assay on SNB-19 CNS, in the assay on HL-60(TB) leukemia, in the assay with NCI-H522 lung, with SK-OV-3 ovarian and in the assay with SK-MEL-28 melanoma was > 100 µM in each case. The TGI in the assay on HCT-15 colon, in the assay with IGROV1 ovarian, in the assay on SF-539 CNS, in the assay on SNB-75 CNS, in the assay on ACHN renal and with MDA-N was > 100 µM each time.
With `COc1cc([C@@H]2c3cc4c(cc3[C@@H](NCCNCCO)[C@H]3COC(=O)[C@H]23)OCO4)cc(OC)c1O`, the TGI was > 40.2 µM and 17.5 µM in the assay on KM12 colon; 19.2 µM and > 32.2 µM in the assay with SNB-19 CNS; > 22 µM and 6.55 µM in the assay with NCI-H522 lung; 12.4 µM and 8.25 µM in the assay with SK-OV-3 ovarian; 9.5 µM and 9.02 µM in the assay with SK-MEL-28 melanoma; > 100 µM in the assay with HCT-15 colon. Also, the TGI with IGROV1 ovarian was 20.2 µM and 12 µM; in the assay with SF-539 CNS, 3.13 µM and 1.04 µM; in the assay with SNB-75 CNS it was 8.64 µM and 5.94 µM; with ACHN renal, 8.68 µM and 21.2 µM; with MDA-N it was 21.4 µM and 28.8 µM. The GI50 with HL-60(TB) leukemia is 0.173 µM and 0.0466 µM; in the assay with NCI-H522 lung, 2.22 µM and 1.05 µM; with SF-539 CNS, 0.702 µM and 0.171 µM; with ACHN renal, 0.856 µM and 2.43 µM.
On to `CC(=O)O[C@H]1C[C@]2(C)C(CCC3O[C@@]32C)[C@@]2(CC(c3ccoc3)OC2O)[C@@H]1C` (stereo not given in full), for which the TGI in the assay on KM12 colon is > 100 µM; with SNB-19 CNS, > 100 µM; in the assay on HL-60(TB) leukemia it was 52 µM; in the assay on NCI-H522 lung it was > 100 µM; in the assay with SK-OV-3 ovarian, > 100 µM; in the assay on SK-MEL-28 melanoma, > 100 µM. In addition, the TGI with HCT-15 colon, in the assay on IGROV1 ovarian, in the assay with SF-539 CNS, in the assay on SNB-75 CNS, in the assay on ACHN renal and with MDA-N was > 100 µM throughout.
`CCCN1C(=O)CCC2=C1CCc1c2ccc(Cl)c1Cl`: the TGI in the assay on KM12 colon is > 100 µM; with SNB-19 CNS it was > 100 µM; in the assay with HL-60(TB) leukemia, 86.2 µM; with NCI-H522 lung, 91.4 µM; in the assay on SK-OV-3 ovarian, 69.1 µM; in the assay with SK-MEL-28 melanoma, > 100 µM. For the same molecule, the TGI in the assay with HCT-15 colon was > 100 µM; in the assay with IGROV1 ovarian it was > 100 µM; in the assay with SF-539 CNS it was 95.4 µM; with SNB-75 CNS, 33.9 µM; with ACHN renal, > 100 µM; in the assay with MDA-N it was > 100 µM.
`O=C(CN1CCN(C(=O)OCc2ccccc2)CCN(CC(=O)N2CCCCC2)CCN(C(=O)OCc2ccccc2)CC1)N1CCCCC1`: the TGI in the assay on KM12 colon is 46.3 µM; in the assay on SNB-19 CNS, > 52.5 µM; in the assay with HL-60(TB) leukemia, > 35.4 µM; in the assay on NCI-H522 lung, 19 µM; in the assay with SK-OV-3 ovarian, > 52.7 µM; in the assay with SK-MEL-28 melanoma it was 27.9 µM. For the same molecule, the TGI was > 50.6 µM with HCT-15 colon; 28.9 µM with IGROV1 ovarian; 27.8 µM with SF-539 CNS; 16.5 µM in the assay on SNB-75 CNS; > 54 µM with ACHN renal; 29.7 µM in the assay with MDA-N.
